Measured values published in patent publication US20100004333A1, “COMPOSITIONS AND METHODS FOR TREATING CARDIOVASCULAR DISORDERS” (priority 2004, published 2010).
Marks after values point to notes of the source that are not given here.

Tests used:
apoE−/− mice [1] = assay: Aortic biochemistry (non-oxidized lipids, α-tocopherol, oxidized lipids) in aortic segments of apoE−/− mice; format: in vivo; conditions: 1% probucol, 24 weeks, mean ± SD; for Lipids: C: 4 pools; for Oxidized lipids: F2-isoprostanes / Oxidized lipids: F2-isoprostanes per arachidonate: ten sections
From the text: (§1) Male C57BL/6J mice, homozygous for the disrupted apoE gene (apoE−/−) and originally purchased from Jackson Laboratories (Bar Harbor, Me.), were used at 8-10 weeks of age and then fed for 24 weeks ad libitum a high fat diet containing 21.2 (w/w) fat and 0.15% (w/w) cholesterol (specifications of the Harlan Teklad diet TD88137), without (controls, 103 mice) or with probucol (1% w/w, 87 mice), as described in Arteriosclerosis Thrombosis and Vascular Biology 2000, 20:e26-e33. The local animal ethics committee approved the study.
(§2) Procedures were carried out as described in Arteriosclerosis Thrombosis and Vascular Biology 2000, 20:e26-e33. For biochemistry, hearts and aortas past the femoral bifurcation were excised carefully (n=86 and 70 for control and probucol animals, respectively), cleaned, placed immediately in ice-cold buffer containing protease inhibitors and antibiotics, and then stored at −80° C. For histology, separate mice (n=17 each, for controls and probucol) were perfusion fixed, the hearts and aortas dissected and processed for blinded morphometry at the sinus, arch and descending thoracic and abdominal aorta, precisely as described in Arteriosclerosis Thrombosis and Vascular Biology 2000, 20:e26-e33. Mean areas from thoracic and abdominal aortas were similar and therefore combined and presented as a single value. For histology, sections at the sinus were taken ˜200 μm from the first appearance of the leaflets. Sections at the thoracic and abdominal aorta were taken at the branch point of the 3rd pair of intra-costal arteries and the celiac artery, respectively.
For F2-isoprostanes, the thawed aortic segment (≈20 mg wet weight) was blotted dry, weighed and F2-isoprostanes analyzed by electron capture negative ionization GC/MS after solid-phase extraction and HPLC purification as described in Analytical Biochemistry 1999, 268:117-125, using [D4]-8-iso-prostaglandin F2α (Cayman Chemical) as internal standard. For arachidonate, phospholipids were separated by thin-layer chromatography, the fatty acid methyl esters then prepared and analyzed by GLC, as described in American Journal of Clinical Nutrition 2000, 71:1085-1094.
For other analytes, pooled aortic segments were homogenized and extracted as described in Journal of Lipid Research 1999, 40:1104-1112, and the organic phase analysed by HPLC with electrochemical (for α-tocopherol), UV (C and CE) and post-column chemiluminescence detection (CE-OOH) as described in Methods in Enzymology 1999, 299:362-375. CE-OOH were measured as a marker of primary lipoprotein lipid peroxidation as they are the primary and major lipid oxidation products formed in lipoproteins from apoE−/− mice undergoing oxidation in the presence of α-tocopherol. For total cholesterol and 7KC, separate 10 μL and 100 μL aliquots, respectively, of the re-dissolved organic extracts were saponified, and subjected to HPLC as described in Journal of Lipid Research 1997, 38:1730-1745. For 7KC, a silica column (0.46×15 cm, 120 Å, 5 μm, Supelco) with guard column (3 μm particle size) was eluted with hexane/isopropylalcohol/acetonitrile (94.8:4.6:0.6 v/v/v) at 1.0 mL/min and monitored at 234 nm. For all chromatographic analyses, compounds were quantified by area comparison using authentic standards.

[2] = versus 10.8 for octanol; cited from earlier work
apoE−/− mice [3] = assay: Atherosclerotic lesion size (morphometry) in apoE−/− mice on high fat diet with or without probucol; format: in vivo; conditions: 24 weeks
From the text: as §1, §2
Data on lesion size are presented as mean±SEM and the effects of probucol analysed by the Mann-Whitney U-test. Biochemical parameters were compared using a one-way ANOVA or Mann-Whitney U-test. Data on total cell numbers, macrophages and collagen content are expressed as mean±SD, and significant differences between means evaluated using the Student's t-test. Statistical significance was accepted at p<0.05.

[4] = mouse, in vivo
Description: The quantity of probucol, BP, and DPQ in aortic homogenates was determined by gradient reverse-phase high-pressure liquid chromatography (HPLC) as described in FASEB Journal 1999, 13:667-675.

SMILES: CC(C)(Sc1cc(C(C)(C)C)c(O)c(C(C)(C)C)c1)Sc1cc(C(C)(C)C)c(O)c(C(C)(C)C)c1 [probucol]
- Antioxidants: α-Tocopherol (apoE−/− mice [1]; Arch): 1.6 ± 0.3^a nmol/mgp
- Lipids: C18:2 (apoE−/− mice [1]; Arch): 33 ± 9^a nmol/mgp
- Lipids: C20:4 (apoE−/− mice [1]; Arch): 17 ± 3^a nmol/mgp
- Oxidized lipids: 7KC (apoE−/− mice [1]; Arch): 0.20 ± 0.11 pmol/mgp
- Oxidized lipids: 7KC/total cholesterol (apoE−/− mice [1]; Arch): 0.25 ± 0.20 mmol/mol
- Oxidized lipids: CE-OOH (apoE−/− mice [1]; Arch): 143.8 ± 118.7 pmol/mgp
- Oxidized lipids: CE-OOH/CE (apoE−/− mice [1]; Arch): 2.70 ± 2.04 mmol/mol
- Lipids: C (apoE−/− mice [1]; Arch): 447 ± 71^a nmol/mgp
- Oxidized lipids: F2-isoprostanes (apoE−/− mice [1]; Arch): 0.35 ± 0.11 pmol/mgp
- Oxidized lipids: F2-isoprostanes per arachidonate (apoE−/− mice [1]; Arch): 10.4 ± 3.6 μmol/mol arachidonate
- Antioxidants: α-Tocopherol (apoE−/− mice [1]; Sinus): 3.0 ± 1.2 nmol/mgp
- Lipids: C18:2 (apoE−/− mice [1]; Sinus): 61 ± 11 nmol/mgp
- Lipids: C20:4 (apoE−/− mice [1]; Sinus): 33 ± 6 nmol/mgp
- Oxidized lipids: 7KC (apoE−/− mice [1]; Sinus): 0.21 ± 0.11 pmol/mgp
- Oxidized lipids: 7KC/total cholesterol (apoE−/− mice [1]; Sinus): 0.16 ± 0.06 mmol/mol
- Oxidized lipids: CE-OOH (apoE−/− mice [1]; Sinus): 88.1 ± 26.6 pmol/mgp
- Oxidized lipids: CE-OOH/CE (apoE−/− mice [1]; Sinus): 0.93 ± 0.12 mmol/mol
- Lipids: C (apoE−/− mice [1]; Sinus): 928 ± 144 nmol/mgp
- Oxidized lipids: F2-isoprostanes (apoE−/− mice [1]; Sinus): 0.39 ± 0.11 pmol/mgp
- Oxidized lipids: F2-isoprostanes per arachidonate (apoE−/− mice [1]; Sinus): 8.6 ± 4.8 μmol/mol arachidonate
- Antioxidants: α-Tocopherol (apoE−/− mice [1]; Thoracic/Abdominal): 1.2 ± 0.2^a nmol/mgp
- Lipids: C18:2 (apoE−/− mice [1]; Thoracic/Abdominal): 10 ± 5^a,b nmol/mgp
- Lipids: C20:4 (apoE−/− mice [1]; Thoracic/Abdominal): 5.0 ± 1.4^a,b nmol/mgp
- Oxidized lipids: 7KC (apoE−/− mice [1]; Thoracic/Abdominal): 0.10 ± 0.04 pmol/mgp
- Oxidized lipids: 7KC/total cholesterol (apoE−/− mice [1]; Thoracic/Abdominal): 0.08 ± 0.02 mmol/mol
- Oxidized lipids: CE-OOH (apoE−/− mice [1]; Thoracic/Abdominal): 20.3 ± 8.1 pmol/mgp
- Oxidized lipids: CE-OOH/CE (apoE−/− mice [1]; Thoracic/Abdominal): 1.46 ± 0.72 mmol/mol
- Lipids: C (apoE−/− mice [1]; Thoracic/Abdominal): 215 ± 55^a nmol/mgp
- Oxidized lipids: F2-isoprostanes (apoE−/− mice [1]; Thoracic/Abdominal): 0.14 ± 0.04^a,b pmol/mgp
- Oxidized lipids: F2-isoprostanes per arachidonate (apoE−/− mice [1]; Thoracic/Abdominal): 3.8 ± 1.4^a,b μmol/mol arachidonate
- Partition coefficient between octanol and water [2]: 10
- Lesion size (apoE−/− mice [3]; Arch, 1% probucol, mean ± SEM, 17 mice): 121 ± 27^a μm^2 × 10^−3
- Lesion size (apoE−/− mice [3]; Sinus, 1% (w/w) probucol in high fat diet, mean ± SEM, 17 mice): 904 ± 56 μm^2 × 10^−3
- Lesion size (apoE−/− mice [3]; Thoracic/Abdominal, 1% probucol, mean ± SEM, 17 mice): 7 ± 2^a μm^2 × 10^−3
- Lesion size (apoE−/− mice [3]; arch, 1% probucol): 0.12±0.03 mm^2
- Inhibition of disease (lesion size) versus control (apoE−/− mice [3]; arch, 1% probucol, not significant): 36%
- Lesion size (apoE−/− mice [3]; descending aorta, 1% probucol): 7,300±2,400 μm^2
- Inhibition of disease (lesion size) versus control (apoE−/− mice [3]; descending aorta, 1% probucol, p<0.0001): 94%
- Lesion size (apoE−/− mice [3]; sinus, 1% probucol): 0.90±0.56 mm^2
- Increase in lesion size versus control (apoE−/− mice [3]; sinus, 1% probucol, p<0.01): 33%
- Metabolites (BP and DPQ) relative to parent drug [4]: nearly one third of the drug
